Assay results as given in patent US10597388B2, “Pyridazinone herbicides” (FMC CORPORATION, priority 2014, dated 2020).

What was measured:
Assay type in all cases: in vivo
[1] = system: sedge, umbrella (small-flower umbrella sedge, Cyperus difformis); assay: Test B flooded paddy test; details: 250 g ai/ha, Flood; visual rating on scale of 0 to 100 where 0 is no effect and 100 is complete control; 13 to 15 d after treatment
How it was run: (§1)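 Plants at the 2-leaf stage were flooded to 3 cm above soil, and test compounds were applied directly into the paddy water, which was held at that depth throughout. After 13 to 15 d in a greenhouse, injury was rated visually against untreated controls on a 0–100 scale (0 no effect, 100 complete control).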

[2] = system: rice (Oryza sativa); assay: Test B flooded paddy test; details: 250 g ai/ha, Flood; visual rating on scale of 0 to 100 where 0 is no effect and 100 is complete control; 13 to 15 d after treatment
How it was run: as §1

[3] = system: barnyardgrass (Echinochloa crus-galli); assay: Test B flooded paddy test; details: 250 g ai/ha, Flood; visual rating on scale of 0 to 100 where 0 is no effect and 100 is complete control; 13 to 15 d after treatment
How it was run: as §1

[4] = system: ducksalad (Heteranthera limosa); assay: Test B flooded paddy test; details: 250 g ai/ha, Flood; visual rating on scale of 0 to 100 where 0 is no effect and 100 is complete control; 13 to 15 d after treatment
How it was run: as §1

[5] = system: galium (catchweed bedstraw, Galium aparine); assay: Test A greenhouse herbicide test, postemergence
How it was run: (§2)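 Plants grown in loam soil/sand blend pots were treated postemergence at 2 to 10 cm height, one- to two-leaf stage, with formulated test chemicals. After approximately 10 d in a greenhouse, injury was rated visually against untreated controls on a 0 to 100 scale (0 no effect, 100 complete control).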

[6] = system: blackgrass (Alopecurus myosuroides); assay: Test A greenhouse herbicide test, postemergence
How it was run: as §2

[7] = system: ryegrass, Italian (Italian ryegrass, Lolium multiflorum); assay: Test A greenhouse herbicide test, pre- and postemergence
How it was run: (§3)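 Seeds sown in loam–sand blend got a preemergence directed soil spray of compound in non-phytotoxic solvent with surfactant. Postemergence treatment was given at 2–10 cm, one- to two-leaf stage. After ~10 d in greenhouse, injury was rated visually vs untreated controls, 0 (no effect) to 100 (complete control).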

[8] = system: corn (Zea mays); assay: as above; details: Postemergence
How it was run: as §3

[9] = system: barnyardgrass (Echinochloa crus-galli); assay: as above
How it was run: as §3

[10] = system: pigweed (Amaranthus retroflexus); assay: as above
How it was run: as §3

[11] = system: wheat (Triticum aestivum); assay: as above; details: Postemergence
How it was run: as §3

[12] = system: ragweed (common ragweed, Ambrosia elatior); assay: as above
How it was run: as §3

[13] = system: foxtail, giant (giant foxtail, Setaria faberii); assay: as above
How it was run: as §3

[14] = system: kochia (Kochia scoparia); assay: as above
How it was run: as §3

[15] = 125 g ai/ha, 0 to 100 scale where 0 is no effect and 100 is complete control
[16] = 500 g ai/ha, visual rating after approx. 10 d, 0 to 100 scale (0 no effect, 100 complete control)
[17] = Postemergence, 125 g ai/ha, 0 to 100 scale where 0 is no effect and 100 is complete control
[18] = Postemergence, 500 g ai/ha, visual rating after approx. 10 d, 0 to 100 scale (0 no effect, 100 complete control)
[19] = Preemergence, 125 g ai/ha, 0 to 100 scale where 0 is no effect and 100 is complete control
[20] = Preemergence, 500 g ai/ha, 0 to 100 scale where 0 is no effect and 100 is complete control

Row | Structure (SMILES) | Plant response rating, Sedge, Umbrella [1] | Plant response rating, Rice [2] | Plant response rating, Barnyardgrass [3] | Plant response rating, Ducksalad [4] | Plant response rating, Galium [5, 15] | Plant response rating, Galium [5, 16] | Plant response rating, Blackgrass [6, 15] | Plant response rating, Blackgrass [6, 16] | Plant response rating, Ryegrass, Italian [7, 17] | Plant response rating, Ryegrass, Italian [7, 18] | Plant response rating, Ryegrass, Italian [7, 20] | Plant response rating, Corn [8, 15] | Plant response rating, Corn [8, 16] | Plant response rating, Barnyardgrass [9, 17] | Plant response rating, Barnyardgrass [9, 18] | Barnyardgrass plant response rating [9, 19] | Plant response rating, Barnyardgrass [9, 20] | Plant response rating, Pigweed [10, 17] | Plant response rating, Pigweed [10, 18] | Pigweed plant response rating [10, 19] | also measured
1 | CCc1nn(C)c(=O)c(-c2c(C)oc3ccc(C)cc23)c1O [Compound 118] | 0 | 0 | 0 | 0 | 0 | 0 | 0 | 0 | 0 | 0 | 0 | 0 | 0 | 0 | 0 | 0 | 30 | 0 | 0 | 0 | Ryegrass, Italian plant response rating [7, 19]: 0; Plant response rating, Pigweed [10, 20]: 10; Plant response rating, Wheat [11, 15]: 0; Plant response rating, Wheat [11, 16]: 0; Plant response rating, Ragweed [12, 17]: 0; Plant response rating, Ragweed [12, 18]: 0; Ragweed plant response rating [12, 19]: 0; Plant response rating, Ragweed [12, 20]: 0; Plant response rating, Foxtail, Giant [13, 17]: 0; Plant response rating, Foxtail, Giant [13, 18]: 0; Foxtail, Giant plant response rating [13, 19]: 0; Plant response rating, Foxtail, Giant [13, 20]: 20; Plant response rating, Kochia [14, 17]: 0; Plant response rating, Kochia [14, 18]: 0; Kochia plant response rating [14, 19]: 0; Plant response rating, Kochia [14, 20]: 0
2 | Cc1ccc2oc(C)c(-c3c(O)c(C(C)C)nn(C)c3=O)c2c1 [Compound 119] | 0 | 0 | 0 | 0 | 0 | 0 | 0 | 0 | 0 | 0 | 0 | 0 | 0 | 0 | 0 | 0 | 0 | 0 | 0 | 0 | Ryegrass, Italian plant response rating [7, 19]: 0; Plant response rating, Pigweed [10, 20]: 0; Plant response rating, Wheat [11, 15]: 0; Plant response rating, Wheat [11, 16]: 0; Plant response rating, Ragweed [12, 17]: 0; Plant response rating, Ragweed [12, 18]: 0; Ragweed plant response rating [12, 19]: 0; Plant response rating, Ragweed [12, 20]: 0; Plant response rating, Foxtail, Giant [13, 17]: 0; Plant response rating, Foxtail, Giant [13, 18]: 0; Foxtail, Giant plant response rating [13, 19]: 0; Plant response rating, Foxtail, Giant [13, 20]: 0; Plant response rating, Kochia [14, 17]: 0; Plant response rating, Kochia [14, 18]: 0; Kochia plant response rating [14, 19]: 0; Plant response rating, Kochia [14, 20]: 0
3 | COc1nn(C)c(=O)c(-c2c(C)sc3ccc(Cl)cc23)c1OC(C)=O [Compound 122] | 0 | 0 | 0 | 0 | 60 | 70 | 30 | 40 | 50 | 70 | 90 | 0 | 20 | 20 | 30 | 0 | 30 | 30 | 70 | 100 | Ryegrass, Italian plant response rating [7, 19]: 70; Plant response rating, Pigweed [10, 20]: 100; Plant response rating, Wheat [11, 15]: 0; Plant response rating, Wheat [11, 16]: 0; Plant response rating, Ragweed [12, 17]: 50; Plant response rating, Ragweed [12, 18]: 60; Plant response rating, Ragweed [12, 20]: 80; Plant response rating, Foxtail, Giant [13, 17]: 40; Plant response rating, Foxtail, Giant [13, 18]: 60; Foxtail, Giant plant response rating [13, 19]: 30; Plant response rating, Foxtail, Giant [13, 20]: 70; Plant response rating, Kochia [14, 17]: 40; Plant response rating, Kochia [14, 18]: 70; Kochia plant response rating [14, 19]: 30; Plant response rating, Kochia [14, 20]: 70
4 | Cc1ccc2ccccc2c1-c1c(OC(=O)C(C)(C)C)c(C#N)nn(C)c1=O [Compound 128] | 0 | 0 | 0 | 30 | 40 | 70 | 0 | 20 | 20 | 50 | 30 | 0 | 0 | 50 | 80 | 50 | 90 | 70 | 90 | 90 | Ryegrass, Italian plant response rating [7, 19]: 10; Plant response rating, Pigweed [10, 20]: 100; Plant response rating, Wheat [11, 15]: 0; Plant response rating, Wheat [11, 16]: 0; Plant response rating, Ragweed [12, 17]: 10; Plant response rating, Ragweed [12, 18]: 30; Ragweed plant response rating [12, 19]: 70; Plant response rating, Ragweed [12, 20]: 70; Plant response rating, Foxtail, Giant [13, 17]: 50; Plant response rating, Foxtail, Giant [13, 18]: 70; Foxtail, Giant plant response rating [13, 19]: 80; Plant response rating, Foxtail, Giant [13, 20]: 90; Plant response rating, Kochia [14, 17]: 0; Plant response rating, Kochia [14, 18]: 0; Kochia plant response rating [14, 19]: 0; Plant response rating, Kochia [14, 20]: 0
5 | COC(=O)Oc1c(C)nn(C)c(=O)c1-c1c(C(F)(F)F)ccc2ccccc12 [Compound 149] | 0 | 0 | 0 | 0 | 90 | 100 | 30 | 70 | 70 | 100 | 90 | 20 | 30 | 20 | 20 | 0 | 70 | 90 | 100 | 100 | Plant response rating, Pigweed [10, 20]: 100; Plant response rating, Wheat [11, 15]: 20; Plant response rating, Wheat [11, 16]: 70; Plant response rating, Ragweed [12, 17]: 90; Plant response rating, Ragweed [12, 18]: 90; Plant response rating, Ragweed [12, 20]: 90; Plant response rating, Foxtail, Giant [13, 17]: 40; Plant response rating, Foxtail, Giant [13, 18]: 80; Foxtail, Giant plant response rating [13, 19]: 30; Plant response rating, Foxtail, Giant [13, 20]: 90; Plant response rating, Kochia [14, 17]: 80; Plant response rating, Kochia [14, 18]: 100; Kochia plant response rating [14, 19]: 40; Plant response rating, Kochia [14, 20]: 90
